This is an account of results in patent US7741327B2 (Hoffmann-La Roche Inc., priority 2008, dated 2010).

This assay deals with T1, Recombinant human liver GK1 (GST-GK) (Homo sapiens, UniProt P35557).
T1 construct: made in house; host or cells: E. coli
T1 sequence (P35557 1-466 isoform P35557-2): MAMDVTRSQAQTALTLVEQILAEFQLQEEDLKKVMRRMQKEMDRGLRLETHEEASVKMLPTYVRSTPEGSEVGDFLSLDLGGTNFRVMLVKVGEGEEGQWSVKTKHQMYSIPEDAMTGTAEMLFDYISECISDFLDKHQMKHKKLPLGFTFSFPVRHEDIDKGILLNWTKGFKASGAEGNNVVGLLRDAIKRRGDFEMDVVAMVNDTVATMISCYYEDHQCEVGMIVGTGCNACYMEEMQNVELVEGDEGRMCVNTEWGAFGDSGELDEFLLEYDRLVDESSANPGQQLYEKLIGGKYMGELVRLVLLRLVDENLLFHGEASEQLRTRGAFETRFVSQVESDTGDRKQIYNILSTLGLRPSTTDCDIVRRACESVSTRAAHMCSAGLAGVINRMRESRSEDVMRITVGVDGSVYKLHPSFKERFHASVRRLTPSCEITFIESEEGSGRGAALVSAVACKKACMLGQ
The assay can be described thus: In vitro glucokinase activity (G6PDH-coupled NADH assay). To be noted: 30° C., 5 mM D-glucose, 10% DMSO. The assay is classed as biochemical. In outline:
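GST-tagged human liver GK1 from E. coli, assayed at 30° C in 25 mM Hepes pH 7.1 with 5 mM D-glucose, 1 mM ATP, 1.8 mM NAD and G6PDH coupling, 10% DMSO final; reaction started with enzyme after 10 min preincubation. NADH formation followed at OD340; SC1.5 is activator concentration giving 50% increase over DMSO control rate.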

On to `COCC[C@@H](C(=O)Nc1ccn(C[C@@H](O)CO)n1)N1CC(Oc2ccccc2Cl)=CC1=O` [Example 230, (S)-2-[4-(2-Chloro-phenoxy)-2-oxo-2,5-dihydro-pyrrol-1-yl]-N-[1-((R)-2,3-dihydroxy-propyl)-1H-pyrazol-3-yl]-4-methoxy-butyramide], for which the “SC1.5 (concentration of activator that produced a 50% increase in the activity of GK)” value was found to be 6.139 µM.
Under `CC(C)(O)Cn1ccc(NC(=O)[C@H](CC2CCCCC2)N2CC(Nc3ccc(Cl)c(Cl)c3)=CC2=O)n1` [Example 231, (S)-3-Cyclohexyl-2-[4-(3,4-dichloro-phenylamino)-2-oxo-2,5-dihydro-pyrrol-1-yl]-N-[1-(2-hydroxy-2-methyl-propyl)-1H-pyrazol-3-yl]-propionamide] stands 5.931 µM.
For `CC(C)NC1=CC(=O)N([C@@H](CC2CCCCC2)C(=O)Nc2ccn(CC(C)(C)O)n2)C1` [Example 232, (S)-3-cyclohexyl-N-[1-(2-hydroxy-2-methyl-propyl)-1H-pyrazol-3-yl]-2-(4-isopropylamino-2-oxo-2,5-dihydro-pyrrol-1-yl)-propionamide] the value was 12.232 µM; for `CCN(C)C1=CC(=O)N([C@@H](CC2CCCCC2)C(=O)Nc2ccn(CC(C)(C)O)n2)C1` [Example 233, (S)-3-cyclohexyl-2-[4-(ethyl-methyl-amino)-2-oxo-2,5-dihydro-pyrrol-1-yl]-N-[1-(2-hydroxy-2-methyl-propyl)-1H-pyrazol-3-yl]-propionamide], 13.348 µM.
Under `CC(C)NC1=CC(=O)N([C@@H](CC2CCCC2)C(=O)Nc2ccn(CC(C)(C)O)n2)C1` [Example 234, (S)-3-cyclopentyl-N-[1-(2-hydroxy-2-methyl-propyl)-1H-pyrazol-3-yl]-2-(4-isopropylamino-2-oxo-2,5-dihydro-pyrrol-1-yl)-propionamide] stands 4.624 µM; under `CC(C)C[C@@H](C(=O)Nc1ccn(C)n1)N1CC(Oc2cccc(CC(C)(C)O)c2)=CC1=O` [Example 235, (S)-2-{4-[3-(2-Hydroxy-2-methyl-propyl)-phenoxy]-2-oxo-2,5-dihydro-pyrrol-1-yl}-4-methyl-pentanoic acid (1-methyl-1H-pyrazol-3-yl)-amide], 2.061 µM.
`CC(C)C[C@@H](C(=O)Nc1ccn(CC(C)(C)O)n1)N1CC(Oc2cccc(CC(C)(C)O)c2)=CC1=O` [Example 236, (S)-2-{4-[3-(2-Hydroxy-2-methyl-propyl)-phenoxy]-2-oxo-2,5-dihydro-pyrrol-1-yl}-4-methyl-pentanoic acid [1-(2-hydroxy-2-methyl-propyl)-1H-pyrazol-3-yl]-amide]: the “SC1.5 (concentration of activator that produced a 50% increase in the activity of GK)” value amounted to 0.823 µM.
For `CC(C)C[C@@H](C(=O)Nc1ccn(C[C@@H]2COC(C)(C)O2)n1)N1CC(Oc2cccc(CC(C)(C)O)c2)=CC1=O` [Example 237, (S)-2-{4-[3-(2-Hydroxy-2-methyl-propyl)-phenoxy]-2-oxo-2,5-dihydro-pyrrol-1-yl}-4-methyl-pentanoic acid [1-((R)-2,2-dimethyl-[1,3]dioxolan-4-ylmethyl)-1H-pyrazol-3-yl]-amide] the value was 1.969 µM; for `CC(C)C[C@@H](C(=O)Nc1ccn(C[C@@H](O)CO)n1)N1CC(Oc2cccc(CC(C)(C)O)c2)=CC1=O` [Example 238, (S)-2-{4-[3-(2-Hydroxy-2-methyl-propyl)-phenoxy]-2-oxo-2,5-dihydro-pyrrol-1-yl}-4-methyl-pentanoic acid [1-((R)-2,3-dihydroxy-propyl)-1H-pyrazol-3-yl]-amide], 1.125 µM; for `CC(C)C[C@@H](C(=O)Nc1ccn(C[C@@H](O)CO)n1)N1CC(Oc2cccc3c2cnn3C)=CC1=O` [Example 240, (S)-4-Methyl-2-[4-(1-methyl-1H-indazol-4-yloxy)-2-oxo-2,5-dihydro-pyrrol-1-yl]-pentanoic acid [1-((R)-2,3-dihydroxy-propyl)-1H-pyrazol-3-yl]-amide], 2.636 µM.
On to `CC(C)C[C@@H](C(=O)Nc1ccn(CC(C)(C)O)n1)N1CC(Oc2cccc(O)c2N)=CC1=O` [Example 241, (S)-2-[4-(2-Amino-3-hydroxy-phenoxy)-2-oxo-2,5-dihydro-pyrrol-1-yl]-4-methyl-pentanoic acid [1-(2-hydroxy-2-methyl-propyl)-1H-pyrazol-3-yl]-amide], for which the “SC1.5 (concentration of activator that produced a 50% increase in the activity of GK)” value was 2.458 µM.
Under `CC(C)C[C@@H](C(=O)Nc1ccn(CC(C)(C)O)n1)N1CC(Oc2cccc3ocnc23)=CC1=O` [Example 242, (S)-2-[4-(Benzooxazol-4-yloxy)-2-oxo-2,5-dihydro-pyrrol-1-yl]-4-methyl-pentanoic acid [1-(2-hydroxy-2-methyl-propyl)-1H-pyrazol-3-yl]-amide] stands 3.036 µM; under `Cc1nc2c(OC3=CC(=O)N([C@@H](CC(C)C)C(=O)Nc4ccn(CC(C)(C)O)n4)C3)cccc2o1` [Example 243, (S)-4-Methyl-2-[4-(2-methyl-benzooxazol-4-yloxy)-2-oxo-2,5-dihydro-pyrrol-1-yl]-pentanoic acid [1-(2-hydroxy-2-methyl-propyl)-1H-pyrazol-3-yl]-amide], 7.56 µM.
Under `CC(C)C[C@@H](C(=O)Nc1cnccn1)N1CC(Oc2ccc(C[C@H](O)CO)cc2)=CC1=O` [Example 244, (S)-2-{4-[4-((S)-2,3-Dihydroxy-propyl)-phenoxy]-2-oxo-2,5-dihydro-pyrrol-1-yl}-4-methyl-pentanoic acid pyrazin-2-ylamide] stands 0.158 µM.
For `CC(C)C[C@@H](C(=O)Nc1cnccn1)N1CC(Oc2ccc(CC(C)(C)O)cc2)=CC1=O` [Example 245, (S)-2-{4-[4-(2-Hydroxy-2-methyl-propyl)-phenoxy]-2-oxo-2,5-dihydro-pyrrol-1-yl}-4-methyl-pentanoic acid pyrazin-2-ylamide] the value was 3.668 µM; for `CC(C)C[C@@H](C(=O)Nc1cnccn1)N1CC(Oc2cccc(CC(C)(C)O)c2)=CC1=O` [Example 246, (S)-2-{4-[3-(2-Hydroxy-2-methyl-propyl)-phenoxy]-2-oxo-2,5-dihydro-pyrrol-1-yl}-4-methyl-pentanoic acid pyrazin-2-ylamide], 1.708 µM; for `CC(C)C[C@@H](C(=O)Nc1cnccn1)N1CC(Oc2cccc(C(C)(C)O)c2F)=CC1=O` [Example 247, (S)-2-{4-[2-Fluoro-3-(1-hydroxy-1-methyl-ethyl)-phenoxy]-2-oxo-2,5-dihydro-pyrrol-1-yl}-4-methyl-pentanoic acid pyrazin-2-ylamide], 2.59 µM.
`CC[C@@H](C)CC(C(=O)Nc1ccn(C[C@@H]2COC(C)(C)O2)n1)N1CC(Oc2ccccc2Cl)=CC1=O` (stereo partly drawn) [Example 252, (R)-2-[4-(2-Chloro-phenoxy)-2-oxo-2,5-dihydro-pyrrol-1-yl]-4-methyl-hexanoic acid [1-((R)-2,2-dimethyl-[1,3]dioxolan-4-ylmethyl)-1H-pyrazol-3-yl]-amide]: the “SC1.5 (concentration of activator that produced a 50% increase in the activity of GK)” value is 0.197 µM.
Under `CC[C@@H](C)CC(C(=O)Nc1ccn(C[C@@H](O)CO)n1)N1CC(Oc2ccccc2Cl)=CC1=O` (stereo partly drawn) [Example 253, (R)-2-[4-(2-Chloro-phenoxy)-2-oxo-2,5-dihydro-pyrrol-1-yl]-4-methyl-hexanoic acid [1-((R)-2,3-dihydroxy-propyl)-1H-pyrazol-3-yl]-amide] stands 0.113 µM; under `CC[C@@H](C)C[C@@H](C(=O)Nc1ccn(C[C@@H](O)CO)n1)N1CC(Oc2ccccc2Cl)=CC1=O` [Example 255, (2S,4R)-2-[4-(2-Chloro-phenoxy)-2-oxo-2,5-dihydro-pyrrol-1-yl]-4-methyl-hexanoic acid [1-((R)-2,3-dihydroxy-propyl)-1H-pyrazol-3-yl]-amide], 0.048 µM; under `CCOc1ccc(F)c(OC2=CC(=O)N(C(CC3CCOCC3)C(=O)Nc3ccn(CC(C)(C)O)n3)C2)c1F` (stereo not shown) [Example 256, 2-[4-(3-Ethoxy-2,6-difluoro-phenoxy)-2-oxo-2,5-dihydro-pyrrol-1-yl]-N-[1-(2-hydroxy-2-methyl-propyl)-1H-pyrazol-3-yl]-3-(tetrahydro-pyran-4-yl)-propionamide], 0.044 µM.
For `CCOc1cccc(OC2=CC(=O)N([C@@H](C[C@H](C)OCC)C(=O)Nc3ccn(CC(C)(C)O)n3)C2)c1F` [Example 259, (2S,4S)-4-Ethoxy-2-[4-(3-ethoxy-2-fluoro-phenoxy)-2-oxo-2,5-dihydro-pyrrol-1-yl]-pentanoic acid [1-(2-hydroxy-2-methyl-propyl)-1H-pyrazol-3-yl]-amide] the value was 0.984 µM.
